Reference: ChEMBL document CHEMBL5608200, “Design, synthesis, and evaluation of antitumor activity of 2-arylmethoxy-4-(2-fluoromethyl-biphenyl-3-ylmethoxy) benzylamine derivatives as PD-1/PD-l1 inhibitors” (Eur J Med Chem, 2024)

How the values were obtained:
[1] = molecular target: Programmed cell death protein 1/Programmed cell death 1 ligand 1 (Homo sapiens, UniProt Q9NZQ7); experiment: Inhibition of human PD-1 to PD-L1 protein-protein interaction by homogeneous-time resolved fluorescence assay; type: protein-complex assay
Sequence of Programmed cell death protein 1/Programmed cell death 1 ligand 1 (Q15116 whole entry): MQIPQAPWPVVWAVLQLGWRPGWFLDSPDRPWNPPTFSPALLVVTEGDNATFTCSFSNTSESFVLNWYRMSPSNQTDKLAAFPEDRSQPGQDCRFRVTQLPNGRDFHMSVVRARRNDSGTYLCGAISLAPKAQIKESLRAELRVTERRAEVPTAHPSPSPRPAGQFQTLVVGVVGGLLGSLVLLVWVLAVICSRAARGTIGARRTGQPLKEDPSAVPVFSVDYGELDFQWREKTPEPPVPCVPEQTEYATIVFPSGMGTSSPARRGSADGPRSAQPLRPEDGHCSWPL
Sequence of Programmed cell death protein 1/Programmed cell death 1 ligand 1 (Q9NZQ7 whole entry): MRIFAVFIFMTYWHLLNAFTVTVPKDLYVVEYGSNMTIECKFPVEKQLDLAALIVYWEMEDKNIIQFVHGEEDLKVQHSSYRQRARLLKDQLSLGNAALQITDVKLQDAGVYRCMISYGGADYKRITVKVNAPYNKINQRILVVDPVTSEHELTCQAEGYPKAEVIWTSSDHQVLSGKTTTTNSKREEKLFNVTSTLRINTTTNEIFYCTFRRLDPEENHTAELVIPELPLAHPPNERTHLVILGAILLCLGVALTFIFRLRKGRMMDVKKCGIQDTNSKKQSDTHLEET

[2] = molecular target: Programmed cell death protein 1/Programmed cell death 1 ligand 1 (Homo sapiens) (UniProt Q15116+Q9NZQ7); settings: HEK293T, dose 100.0 nM, time 30.0 min
[3] = AUC(0 to t) in Sprague-Dawley rat at 10 mg/kg, iv measured upto 48 hrs by LC-MS/MS analysis; type: ADME, organism-based; settings: in vivo
MC-38 = experiment: Antitumor activity against mouse MC38 cells expressing hPD-L1 implanted in PD-1/PD-L1 humanized C57BL/6 mouse assessed as tumor growth inhibition at 50 mg/kg, IG; type: functional; settings: MC-38, po, read-out: TGI
[4] = Apparent volume of distribution in Sprague-Dawley rat at 10 mg/kg, iv measured upto 48 hrs by LC-MS/MS analysis; type: ADME, organism-based; settings: in vivo
[5] = Cmax in Sprague-Dawley rat at 50 mg/kg, IG measured upto 48 hrs by LC-MS/MS analysis; type: ADME, organism-based; settings: in vivo, po
[6] = AUC(0 to infinity) in Sprague-Dawley rat at 10 mg/kg, iv measured upto 48 hrs by LC-MS/MS analysis; type: ADME, organism-based; settings: in vivo
[7] = Tmax in Sprague-Dawley rat at 50 mg/kg, IG measured upto 48 hrs by LC-MS/MS analysis; type: ADME, organism-based; settings: in vivo, po
[8] = Cmax in Sprague-Dawley rat at 10 mg/kg, iv measured upto 48 hrs by LC-MS/MS analysis; type: ADME, organism-based; settings: in vivo
[9] = Half-life in Sprague-Dawley rat at 50 mg/kg, IG measured upto 48 hrs by LC-MS/MS analysis; type: ADME, organism-based; settings: in vivo, po
[10] = Half-life in Sprague-Dawley rat at 10 mg/kg, iv measured upto 48 hrs by LC-MS/MS analysis; type: ADME, organism-based; settings: in vivo
[11] = Oral bioavilability in Sprague-Dawley rat at 50 mg/kg measured upto 48 hrs by LC-MS/MS analysis; type: ADME, organism-based; settings: in vivo
[12] = Apparent volume of distribution in Sprague-Dawley rat at 50 mg/kg, IG measured upto 48 hrs by LC-MS/MS analysis; type: ADME, organism-based; settings: in vivo, po
[13] = Cytotoxicity against human PBMCs at 1 to 4 uM by CCK-8 assay; type: toxicity, cell-based; settings: pbmc, dose 1-4 µM
[14] = Tmax in Sprague-Dawley rat at 10 mg/kg, iv measured upto 48 hrs by LC-MS/MS analysis; type: ADME, organism-based; settings: in vivo
[15] = AUC(0 to t) in Sprague-Dawley rat at 50 mg/kg, IG measured upto 48 hrs by LC-MS/MS analysis; type: ADME, organism-based; settings: in vivo, po
[16] = AUC(0 to infinity) in Sprague-Dawley rat at 50 mg/kg, IG measured upto 48 hrs by LC-MS/MS analysis; type: ADME, organism-based; settings: in vivo, po
[17] = Clearance in Sprague-Dawley rat at 10 mg/kg, iv measured upto 48 hrs by LC-MS/MS analysis; type: ADME, organism-based; settings: in vivo
[18] = Clearance in Sprague-Dawley rat at 50 mg/kg, IG measured upto 48 hrs by LC-MS/MS analysis; type: ADME, organism-based; settings: in vivo, po

| SMILES | IC50 [1] [nM] | further results |
| --- | --- | --- |
| N#Cc1cncc(COc2cc(OCc3cccc(-c4ccccc4F)c3CF)ccc2CN2CCC(C(=O)O)C2)c1 (stereo not drawn) | 25.2 |  |
| N#Cc1cncc(COc2cc(OCc3cccc(-c4ccc5c(c4)OCCO5)c3C(F)F)ccc2CN2CCC[C@H]2C(=O)O)c1 | 19.4 | inhibition [2]: 21.7% |
| N#Cc1cncc(COc2cc(OCc3cccc(-c4ccccc4F)c3C(F)F)ccc2CN2CCC[C@H]2C(=O)O)c1 | 120 |  |
| N#Cc1cncc(COc2cc(OCc3cccc(-c4ccccc4F)c3CF)ccc2CN2CC(C(=O)O)C2)c1 | 18.8 | inhibition [2]: 20.5% |
| CC(=O)NCCNCc1ccc(OCc2cccc(-c3ccccc3F)c2C(F)F)cc1OCc1cncc(C#N)c1 | 100 |  |
| N#Cc1cncc(COc2cc(OCc3cccc(-c4ccccc4)c3C(F)(F)F)ccc2CN[C@@H](CO)C(=O)O)c1 | 58.6 |  |
| N#Cc1cncc(COc2cc(OCc3cccc(-c4cc(F)ccc4F)c3CF)ccc2CNCCO)c1 | 42 |  |
| N#Cc1cncc(COc2cc(OCc3cccc(-c4ccc5c(c4)OCCO5)c3CF)ccc2CNCCO)c1 | 11.9 | inhibition [2]: 17.3% |
| N#Cc1cncc(COc2cc(OCc3cccc(-c4ccccc4F)c3CF)ccc2CN[C@@H](CO)C(=O)O)c1 | 12.7 |  |
| N#Cc1cccc(COc2cc(OCc3cccc(-c4ccccc4F)c3CF)ccc2CN2CCC[C@H]2C(=O)O)c1 | 10 |  |
| N#Cc1cncc(COc2cc(OCc3cccc(-c4ccccc4F)c3C(F)F)ccc2CNCC(=O)O)c1 | 154 |  |
| N#Cc1cccc(COc2cc(OCc3cccc(-c4ccccc4F)c3CF)ccc2CNCCO)c1 | 100 |  |
| N#Cc1cncc(COc2cc(OCc3cccc(-c4ccc5c(c4)OCCO5)c3CF)ccc2CN[C@@H](CO)C(=O)O)c1 | 19.7 | inhibition [2]: 22% |
| CN(C)CCNCc1ccc(OCc2cccc(-c3ccc4c(c3)OCCO4)c2C(F)F)cc1OCc1cccnc1 | 100 |  |
| CC(=O)NCCNCc1ccc(OCc2cccc(-c3ccc4c(c3)OCCO4)c2CF)cc1OCc1cncc(C#N)c1 | 24.9 |  |
| N#Cc1cncc(COc2cc(OCc3cccc(-c4ccc5c(c4)OCCO5)c3CF)ccc2CNCC(=O)O)c1 | 100 |  |
| N#Cc1cncc(COc2cc(OCc3cccc(-c4ccccc4F)c3C(F)F)ccc2CNCCO)c1 | 41.9 |  |
| OCC(O)CNCc1ccc(OCc2cccc(-c3ccc4c(c3)OCCO4)c2C(F)F)cc1OCc1cccnc1 (stereo not drawn) | 67.5 |  |
| N#Cc1cncc(COc2cc(OCc3cccc(-c4ccccc4F)c3CF)ccc2CNCCO)c1 | 24.9 |  |

| SMILES | IC50 [1] [nM] | further results |
| --- | --- | --- |
| N#Cc1cccc(COc2cc(OCc3cccc(-c4ccccc4F)c3C(F)F)ccc2CNCCO)c1 | 100 |  |
| CC(=O)NCCNCc1ccc(OCc2cccc(-c3cc(F)ccc3F)c2CF)cc1OCc1cncc(C#N)c1 | 100 |  |
| N#Cc1cncc(COc2cc(OCc3cccc(-c4ccccc4F)c3CF)ccc2CN2CCCCC2C(=O)O)c1 (stereo not drawn) | 27 |  |
| CC(=O)NCCNCc1ccc(OCc2cccc(-c3ccc4c(c3)OCCO4)c2C(F)F)cc1OCc1cncc(C#N)c1 | 17.2 | inhibition [2]: 18.4% |
| CC(=O)NCCNCc1ccc(OCc2cccc(-c3ccccc3F)c2CF)cc1OCc1cccc(C#N)c1 | 100 |  |
| N#Cc1cncc(COc2cc(OCc3cccc(-c4ccccc4F)c3C(F)F)ccc2CN[C@@H](CO)C(=O)O)c1 | 16.9 |  |
| CC(=O)NCCNCc1ccc(OCc2cccc(-c3ccccc3F)c2CF)cc1OCc1cncc(C#N)c1 | 31.4 |  |
| N#Cc1cncc(COc2cc(OCc3cccc(-c4ccc5c(c4)OCCO5)c3C(F)F)ccc2CNCC(O)CO)c1 (stereo not drawn) | 9.5 | inhibition [2]: 17% |
| CN(C)CCNCc1ccc(OCc2cccc(-c3ccc4c(c3)OCCO4)c2C(F)F)cc1OCc1cncc(C#N)c1 | 29.5 |  |
| N#Cc1cncc(COc2cc(OCc3cccc(-c4ccccc4)c3C(F)(F)F)ccc2CNCCO)c1 | 93.8 |  |
| N#Cc1cncc(COc2cc(OCc3cccc(-c4cc(F)ccc4F)c3CF)ccc2CN[C@@H](CO)C(=O)O)c1 | 20.9 |  |
| N#Cc1cncc(COc2cc(OCc3cccc(-c4ccccc4F)c3CF)ccc2CN[C@H](CO)C(=O)O)c1 | 10 |  |
| COc1nc(OCc2cccc(-c3ccccc3)c2C)ccc1CNCCNC(C)=O |  | AUC(0-t) at 48 h [3]: 8600 ng·h/mL; inhibition in vivo at 50 mg/kg (MC-38): 44.6%; Vz [4]: 12.46 L/kg; Cmax [5]: 5730 ng/mL; AUC(0-inf) [6]: 8710 ng·h/mL; Tmax [7]: 2.1 h; Cmax [8]: 3350 ng/mL; t1/2 [9]: 3.13 h; t1/2 [10]: 1.94 h; bioavailability [11]: 39.1%; Vz [12]: 56.85 L/kg; Activity [13]: Non-Toxic; Tmax [14]: 7.2 min; AUC(0-t) at 48 h [15]: 16800 ng·h/mL; AUC(0-inf) [16]: 16900 ng·h/mL; CL [17]: 1.15 L/h/kg; inhibition [2]: 34.6%; CL [18]: 2.95 L/h/kg |
| N#Cc1cncc(COc2cc(OCc3cccc(-c4ccccc4F)c3CF)ccc2CNCC(=O)O)c1 | 28.4 |  |
| N#Cc1cncc(COc2cc(OCc3cccc(-c4ccccc4F)c3CF)ccc2CN2CCC(O)C2)c1 (stereo not drawn) | 55.8 |  |
| N#Cc1cncc(COc2cc(OCc3cccc(-c4ccc5c(c4)OCCO5)c3CF)ccc2CN2CCCCC2C(=O)O)c1 (stereo not drawn) | 100 |  |
| N#Cc1cncc(COc2cc(OCc3cccc(-c4ccc5c(c4)OCCO5)c3CF)ccc2CN2CCC(C(=O)O)C2)c1 (stereo not drawn) | 14.9 | inhibition [2]: 18.4% |
| N#Cc1cncc(COc2cc(OCc3cccc(-c4ccccc4F)c3CF)ccc2CN2CCC[C@H]2C(=O)O)c1 | 6.9 | inhibition [2]: 15.4% |
| N#Cc1cccc(COc2cc(OCc3cccc(-c4ccccc4F)c3C(F)F)ccc2CN[C@@H](CO)C(=O)O)c1 | 100 |  |
